Bounds are passed on as bounds.

Our source for the EC50 values is patent publication US7355033B2, “Screening for West Nile Virus antiviral therapy” (Health Research, Inc., priority 2002, dated 2008).

Test [1] has as its system lineage I WNV replicon (Rluc/NeoRep) RNA. Nature of the test: Replicon RNA copy number by real-time RT-PCR in Rluc/NeoRep reporting cell line. Type of test: cell-based. The settings on record: West Nile virus, 24 h, read-out: EC50 derived from the replicon RNA copy numbers. The protocol: (§1) To test the stability of the replicon-containing cell lines, cells at various time points post-selection (p.s.) were examined for viral and Rluc protein expression, and for replicon RNA copy numbers. […] (lower two panels in FIG. 18B). […] (ii) Stable and high levels of Rluc activity were detected from cells collected on days 20, 50, and 80 p.s. (FIG. 18C). For Rluc assay, 10^6 cells were lysed in 500 microliters of lysis buffer; 20 microliters of lysate was measured for Rluc activity according to the manufacturer (Promega) using a Lumat luminometer (EG & G, Berthold, Australia). Approximately 8×10^6 light units were consistently detected from 4×10^4 cells, about 200 light units per cell. (iii) A consistent level of replicon RNA was maintained in cells at 20, 50, and 80 days p.s. (FIG. 18D). Real-time RT-PCR, targeting the viral NS1 region, was used to quantify replicon RNA as previously reported (Shi, P. Y., et al. 2002. Virology 296:219-233; Shi, P. Y., et al. 2002. J. Virol. 76:5847-56; Lo, M. K., et al. 2003. J. Virology 77, 12901-12906). Total RNA extracted from 10^6 cells was eluted in 50 microliters of RNase-free water using RNeasy kits (Qiagen); 5 microliters of RNA was quantified by real-time RT-PCR, using in vitro trancribed RNA as standards. About 10^9 replicon molecules in 10^5 cells was estimated, or about 10^4 replicon RNAs per cell.
To verify that the reduction in Rluc activity reflected the compound inhibition of viral RNA replication, RT-PCR was performed. After 24 h of compound treatment, cells from the 12-well plates were assayed for RNA amounts as described above, except that 12 μl from the 50 μl extracted RNA was used in the real-time RT-PCR assay. […] The relative potencies of the three tested compounds are also similar to those observed with the Rluc results, in the decreasing order of mycophenolic acid, 6-azauridine, and ribavirin (compare FIGS. 19A to 19B). […]

The test system of the next test is WNV. The settings on record: Morrey et al. 2002; read-out: EC50 derived from the standard viral infection assay; cited from earlier work.
For test [2], the system named is lineage I WNV replicon (Rluc/NeoRep). Nature of the test: Rluc activity in BHK-21 reporting cell line containing WNV Rluc/NeoRep replicon. Particulars: West Nile virus, 24 h compound treatment, 12-well plates, estimated from Rluc curves, read-out: EC50 (compound concentration required to inhibit 50% of the Rluc activity). Type of test: cell-based. The protocol:
as §1
To examine whether the reporting cell line can be used as an antiviral assay, three known WNV inhibitors were tested in the cells: 6-azauridine, an inhibitor of orotidine monophosphate decarboxylase, and mycophenolic acid and ribavirin, inhibitors of inosine monophosphate dehydrogenase (De Clercq, E. 1993. Advance Virus Res. 42:1-55; Jordan, I., et al. 2000. J. Infect. Dis. 182:1214-7; Morrey, J., et al. 2002. Antiviral Res. 55:107-116). Ribavirin has also been reported to function as a mutagen, causing lethal levels of mutagenesis within the virus population (Crotty, S., et al. 2000. Nature Med. 6:1375-9). All three compounds were purchased from Sigma (St. Louis, Mo.). Initially, the assay was performed in 12-well plates. […]

With `O=c1cnn([C@@H]2O[C@H](CO)[C@@H](O)[C@H]2O)c(=O)[nH]1` [6-azauridine], the EC50 was greater than 300 µM in test [1], 6.1 µM in the test on WNV and 11 µM in test [2].

`COc1c(C)c2c(c(O)c1C/C=C(\C)CCC(=O)O)C(=O)OC2` [mycophenolic acid]: the EC50 in test [1] was roughly 100 µM; in the test with WNV, 8.4 µM; in test [2] it was 5.4 µM.

`NC(=O)c1ncn([C@@H]2O[C@H](CO)[C@@H](O)[C@H]2O)n1` [ribavirin]: the EC50 in test [1] is greater than 300 µM; in the test with WNV, 178 µM; in test [2] it was 140 µM.
